# Experimental data taken from US12606543B2, “Indole derivatives as serotonergic agents useful for the treatment of disorders related thereto” (priority 2023, dated 2026).
# Columns and labels:
# human 5-HT2C receptor = biological target: T1, human 5-HT2C receptor (Homo sapiens, UniProt P28335); experiment: cell-based; details: calcium mobilization FLIPR; for Emax (% of serotonin): U2OS cells, relative to maximum response of serotonin; for EC50: stably transfected U2OS cells
# T1 construct: expressed in transfected cells; host or cells: U2OS
# T1 sequence (P28335 33-458): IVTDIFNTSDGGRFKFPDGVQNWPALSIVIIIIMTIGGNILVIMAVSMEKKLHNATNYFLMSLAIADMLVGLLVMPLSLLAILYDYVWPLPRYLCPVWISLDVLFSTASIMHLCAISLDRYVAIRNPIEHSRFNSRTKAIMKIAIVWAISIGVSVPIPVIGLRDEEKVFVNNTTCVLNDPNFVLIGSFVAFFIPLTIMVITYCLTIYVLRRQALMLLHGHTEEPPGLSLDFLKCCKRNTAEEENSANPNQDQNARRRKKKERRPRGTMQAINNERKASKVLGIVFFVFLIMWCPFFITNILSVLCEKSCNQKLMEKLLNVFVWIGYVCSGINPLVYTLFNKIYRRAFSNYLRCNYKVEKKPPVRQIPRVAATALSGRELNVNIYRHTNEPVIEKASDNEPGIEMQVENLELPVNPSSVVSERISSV
# [1] = Liver microsomes stability, mouse; format: in vitro ADME; details: for half-life at 2 μM / microsomal CLint at 2 μM / CLint scaled at 2 μM: male; for CLint scaled at 2 μM: read-out: Scaled-up CLint
# Experimental: (§1) The objective of this study was to estimate in vitro metabolic stability of exemplary compounds of Formula (I) or a pharmaceutically acceptable salt, solvate, and/or prodrug thereof in pooled human, male rat, and male mouse liver microsomes. The concentrations of compounds in reaction systems were evaluated by LC-MS/MS for estimating the stability in pooled human, male rat, and male mouse liver microsomes. The in vitro intrinsic clearances of test compounds were determined as well.
# A master solution in the “Incubation Plate” containing phosphate buffer, ultra-pure H2O, MgCl2 solution and liver microsomes was made according to Table 33. The mixture was pre-warmed at 37° C. water bath for 5 minutes.
# 40 μL of 10 mM nicotinamide adenine dinucleotide phosphate (NADPH) solution was added to each well. The final concentration of NADPH was 1 mM. The negative control samples were prepared by replacing NADPH with 40 μL of ultra-pure H2O. Samples were prepared in duplicate. Negative controls were prepared in singlet.
# The reaction was started with the addition of 4 μL of 200 μM exemplary test compounds of the disclosure or control compounds to each master solution to get the final concentration of 2 μM. This study was performed in duplicate.
# Aliquots of 50 μL were taken from the reaction solution at 0, 15, 30, 45, and 60 minutes. The reaction solutions were stopped by the addition of 4 volumes of cold methanol with IS (100 nM alprazolam, 200 nM imipramine, 200 nM labetalol, and 2 μM ketoprofen). Samples were centrifuged at 3,220 g for 40 minutes. Aliquot of 90 μL of the supernatant was mixed with 90 μL of ultra-pure H2O and then was used for LC-MS/MS analysis.
# LC/MS analysis was performed for all samples from this study using a Shimadzu liquid chromatograph separation system equipped with degasser DGU-20A5R; solvent delivery unit LC-30AD; system controller SIL-30AC; column oven CTO-30A; CTC Analytics HTC PAL System. Mass spectrometric analysis was performed using a Triple Quad™ 5500 instrument.
# All calculations were carried out using Microsoft Excel. Peak area ratios of test compound to internal standard (listed in the below table) were determined from extracted ion chromatograms.
# All calculations were carried out using Microsoft Excel. Peak areas were determined from extracted ion chromatograms. The slope value, k, was determined by linear regression of the natural logarithm of the remaining percentage of the parent drug vs. incubation time curve.
# The in vitro half-life (in vitro t1/2) was determined from the slope value:
# Conversion of the in vitro t1/2 (min) into the in vitro intrinsic clearance (in vitro CLint, in μL/min/mg proteins) was done using the following equation (mean of duplicate determinations): […]
# as §1, with “solvate” for “solvate,”, “rat” for “rat,”
# A master solution in the “Incubation Plate” containing phosphate buffer, ultra-pure H2O, MgCl2 solution and liver microsomes was made according to Table 67. The mixture was pre-warmed at 37° C. water bath for 5 minutes.
# 40 μL of 10 mM NADPH solution was added to each well. The final concentration of NADPH was 1 mM. The negative control samples were prepared by replacing NADPH with 40 μL of ultra-pure H2O. Samples were prepared in duplicate. Negative controls were prepared in singlet
# Aliquots of 50 μL were taken from the reaction solution at 0, 15, 30, 45 and 60 minutes. The reaction solutions were stopped by the addition of 4 volumes of cold methanol with IS (100 nM alprazolam, 200 nM imipramine, 200 nM labetalol and 2 μM ketoprofen). […]
# [2] = mouse liver microsomes, With Cofactors, 0 min
# [3] = mouse liver microsomes, With Cofactors, 30 min
# [4] = mouse liver microsomes, With Cofactors, 60 min
# [5] = mouse liver microsomes, Without Cofactors, 0 min
# [6] = mouse liver microsomes, Without Cofactors, 30 min
# [7] = mouse liver microsomes, Without Cofactors, 60 min
# [8] = pooled liver microsomes, mouse liver microsomes, 2 μM compound, 0.5 mg/mL microsomes
Compound,Emax (% of serotonin) (human 5-HT2C receptor),EC50 (human 5-HT2C receptor),CLint scaled at 2 μM ([1]; mouse liver microsomes),"half-life at 2 μM [1, 8]","microsomal CLint at 2 μM [1, 8]",Predicted hepatic CL ([1]; mouse liver microsomes),"Remaining Percentage [1, 2]","Remaining Percentage [1, 3]","Remaining Percentage [1, 4]","Remaining Percentage [1, 5]","Remaining Percentage [1, 6]","Remaining Percentage [1, 7]",other results
"CSc1ccc2[nH]cc(C[C@H]3CCCN3C)c2c1 [(R) I-1, (R)-3-((1-Methylpyrrolidin-2-yl)methyl)-5-(methylthio)-1H-indole]",95.27 % of serotonin,0.6 nM,> 1340 mL/min/kg,,,,,,,,,,"Predicted hepatic CL ([1]; Mouse liver microsomes): >84.35 mL/min/kg; half-life at 2 μM ([1]; Mouse liver microsomes, 2 μM, 0.5 mg/mL, NADPH, <4.51 if % remaining at 30 min below 1%): < 4.51 min; microsomal CLint at 2 μM ([1]; Mouse liver microsomes, 2 μM, 0.5 mg/mL, NADPH, >307.01 if % remaining at 30 min below 1%): > 307 µL/min/mg; Remaining Percentage (%) 0 min [1, 2]: 100.00%; Remaining Percentage (%) 30 min [1, 3]: 0.15%; Remaining Percentage (%) 60 min [1, 4]: 0.23%; Remaining Percentage (%) 0 min [1, 5]: 100.00%; Remaining Percentage (%) 30 min [1, 6]: 98.55%; Remaining Percentage (%) 60 min [1, 7]: 103.02%"
[2H]C([2H])(c1c[nH]c2ccc(OCCCCCN3C(=O)C4CCCCC4C3=O)cc12)[C@H]1CCCN1C([2H])([2H])[2H] (mixture of isomers) [Rac (R) I-248],,,> 1340 mL/min/kg,< 4.51 min,> 307 µL/min/mg,>84.35 mL/min/kg,100.00%,0.15%,0.19%,100.00%,99.54%,95.85%,
"[2H]C([2H])(c1c[nH]c2ccc(OCCCCN3C(=O)c4ccccc4C3=O)cc12)[C@H]1CCCN1C([2H])([2H])[2H] [(R) I-244, (R)-2-(4-((3-((1-(Methyl-d3)pyrrolidin-2-yl)methyl-d2)-1H-indol-5-yl)oxy)butyl)isoindoline-1,3-dione]",87.27 % of serotonin,2.53 nM,> 1340 mL/min/kg,< 4.51 min,> 307 µL/min/mg,>84.35 mL/min/kg,100.00%,0.00%,0.00%,100.00%,98.38%,86.59%,
"[2H]C([2H])(c1c[nH]c2ccc(OCCCCCN3C(=O)c4ccccc4C3=O)cc12)[C@H]1CCCN1C([2H])([2H])[2H] [(R) I-245, (R)-2-(5-((3-((1-(Methyl-d3)pyrrolidin-2-yl)methyl-d2)-1H-indol-5-yl)oxy)pentyl)isoindoline-1,3-dione]",83.29 % of serotonin,42.3 nM,1180 mL/min/kg,5.12 min,271 µL/min/mg,83.65 mL/min/kg,100.00%,1.72%,0.25%,100.00%,100.00%,93.17%,
"[2H]C([2H])(c1c[nH]c2ccc(OCCCCCN3C(=O)[C@H]4CCCC[C@H]4C3=O)cc12)[C@H]1CCCN1C([2H])([2H])[2H] [Cis (R) I-248, 2-(5-((3-(((R)-1-(Methyl-d3)pyrrolidin-2-yl)methyl-d2)-1H-indol-5-yl)oxy)pentyl)hexahydro-1H-isoindole-1,3(2H)-dione]",89.99 % of serotonin,151 nM,,,,,,,,,,,
"COCCN1CCC[C@@H]1Cc1c[nH]c2ccc(OC)cc12 [(R) I-98, (R)-5-Methoxy-3-((1-(2-methoxyethyl)pyrrolidin-2-yl)methyl)-1H-indole]",95.23 % of serotonin,6.51 nM,421 mL/min/kg,14.4 min,96.3 µL/min/mg,74.16 mL/min/kg,,100.00%,14.54%,,100.00%,100.99%,
